This is an account of results in patent publication US7414138B2, “Benzoxazole and benzodiazole UV-A sunscreens” (DSM IP Assets B.V., priority 2002, dated 2008).

SMILES strings stand for the structures.

Data set [1] is described as follows: Solubility measurement in cosmetic solvents (saturated solution, UV spectroscopy). The settings on record: for solubility in Crodamol DA: Crodamol DA (diisopropyl adipate); for solubility in Crodamol DA / solubility in Cétiol LC: room temperature, 18 hours; for solubility in Cétiol LC: Cétiol LC (cocoyl caprylate caprate).
Experimental: An excess of the UV sunscreen was placed in a flask, containing Cétiol LC (cocoyl caprylate caprate) and Crodamol DA (diisopropyl adipate), respectively. The suspension was mixed and treated in an ultrasound bath for 10 minutes. After standing at room temperature for 18 hours, the solution over the remaining crystals was filtered through a millipore microfilter (pore size of 0.45 μm). The concentration of this saturated solution was determined by means of UV spectroscopy in comparison with a calibration curve.
Data set [2] in a line: Photostability, irradiation in high dilution with 150 W Hg-lamp (on-line Hg-lamp/HPLC). The settings on record: for photostability (in words): irradiated in high dilution with a Hg-lamp 150 W from Heraeus. The format is physicochemical. The method, then: The photostability is measured in an on-line system Hg-lamp/HPLC, using a 150 W Hg-lamp of Heraeus with Pyrex filter (2.3 mm) and a Teflon capillary tube with 0.3 mm inside diameter and a total length of 10 m. 3.6. mg of the sample is dissolved in 16 ml of MeOH and 10 μl of this solution injected. The degradation products are not separated. UV-absorption at a wavelength of 358 nm of the irradiated solution is measured periodically up to 14 minutes and the result is compared with the corresponding photostability of butyl methoxy dibenzoylmethane. The product was detected in >90%, indicating photostability, whereas only 16% of butyl methoxy dibenzoylmethane could be detected after 14 minutes of irradiation.
Alternatively, the measurement is performed according to the protocol described in the International Journal of Cosmetic Science 18, 167-177 (1996).

As to `C=C(COc1ccc2nc(-c3ccc(C=C(C(=O)OCC)C(=O)OCC)cc3)oc2c1)[Si](C)(O[Si](C)(C)C)O[Si](C)(C)C` [Example 9], the “solubility in Crodamol DA (in words)” value in data set [1] (Crodamol DA) was “unlimited solubility”. The “photostability (in words)” value in data set [2] is listed as “excellent photostability”.
One may read the melting point as the temperature of the solid-liquid transition. In turn, `CCOC(=O)C(=Cc1ccc(-c2nc3ccc(O)cc3o2)cc1)C(=O)OCC` [Example 6, 2-(4-[6-Hydroxy-benzoxazol-2-yl]-benzylidene)-malonic acid diethyl ester] yielded a melting point of 153 to 155 °C. For the same compound, the “solubility in Crodamol DA” value in data set [1] stood at 1.6%. Moreover, the “photostability (in words)” value in data set [2] was “photostable”.
Regarding `CCOC(=O)C(=Cc1ccc(-c2nc3ccccc3o2)cc1)C(=O)OCC` [Example 1, 2-(4-Benzoxazol-2-yl-benzylidene)-malonic acid diethyl ester], the melting point is 99 to 102 °C. In data set [1], the “solubility in Crodamol DA” value came to 11% and the “solubility in Cétiol LC” value turned out to be 4.5%. In addition, the “product detected after irradiation” value in data set [2] (MeOH solution, 150 W Hg-lamp with Pyrex filter, UV-absorption at 358 nm, after 14 minutes of irradiation) is on record as over 90%.
`CCCCC(CC)COc1ccc2nc(-c3ccc(C=C(C(=O)OCC)C(=O)OCC)cc3)oc2c1` (stereo not shown) [Example 7] gave a melting point of 50 to 52 °C. For the same compound, the “solubility in Cétiol LC” value in data set [1] worked out at 10.2%. In data set [2], the “photostability (in words)” value is on record as “photostable”.
With `CCOCCOCCOc1ccc2nc(-c3ccc(C=C(C(=O)OCC)C(=O)OCC)cc3)oc2c1` [Example 8], the melting point fell in the range of 43 to 45 °C. Further, in data set [1], the “solubility in Cétiol LC” value was determined as 4.6%. The “photostability (in words)” value in data set [2] is “photostable”.
In the case of `CCCCOC(=O)C(=Cc1ccc(-c2nc3ccccc3o2)cc1)C(=O)OCCCC` [Example 3, 2-(4-Benzoxazol-2-yl-benzylidene)-malonic acid dibutyl ester], in data set [1] (Cétiol LC), the “solubility in Cétiol LC (in words)” value is recorded as “miscible”. Further, in data set [2], the “photostability (in words)” value was “photostable”.
As to `CCCCC(CC)COC(=O)/C(C#N)=C/c1ccc(-c2nc3ccccc3o2)cc1` (stereo not shown) [Example 4, 2-Cyano-3-{4-benzoxazol-2-yl-phenyl}-acrylic acid 2-ethylhexyl ester], the melting point fell in the range of 84 to 85 °C. For the same compound, in data set [1], the “solubility in Crodamol DA” value was determined as 2.8% and the “solubility in Cétiol LC” value was 1.6%. Also, the “photostability (in words)” value in data set [2] is given as “photostable after E/Z isomerisation”.
Turning to `CCCCC(CC)COC(=O)/C(C#N)=C/c1ccc(-c2nc3cc(C(C)(C)C)ccc3o2)cc1` (stereo not shown) [Example 2, 2-Cyano-3-{4-[5-tert.-butyl-benzoxazol-2-yl]-phenyl}-acrylic acid 2-ethylhexyl ester], the melting point lay within 80 to 81 °C. In data set [1], the “solubility in Crodamol DA” value is recorded as 7.4% and the “solubility in Cétiol LC” value is given as 3.8%. The “photostability (in words)” value in data set [2] is reported as “photostable”.
